The results in this text go back to PMC10321576, “Cyclic peptides target the aromatic cage of a PHD-finger reader domain to modulate epigenetic protein function” (Chemical Science, 2023).

Assay [1] relates to SUP-T1 nuclear lysate proteins. Briefly: Pull-down and proteomics from SUP-T1 nuclear lysate. Conditions: 1 μM OC9-Bt, 454 proteins identified. Type of assay: binding. As for the experimental part:
Fig. 6 Selective capture of full-length KDM7 with OC9-Bt in nuclear lysates. (a) OC9-Bt, H3K4me3-Bt and Bt were used as affinity probes in HEK293T nuclear lysates, transiently transfected with wild type KDM7B, or PHD-finger mutant (Y14A, W29A). Capture was performed with 1 μM probe incubated in pre-cleared lysate, recovered with streptavidin-conjugated magnetic beads, then washed and eluted by heating in denaturing solution. 100-fold excess OC9 or OC9 V10A were used as competitors. […] (Left) Change in all protein (454) recoveries with competition by titration of unlabelled OC9. (Right) Volcano plot comparing relative abundance of pull-down content at 0 and 20 μM competition. The upper left quadrant indicates >5-fold difference in recovered protein (based on T-test difference of mean log 2 (LFQ) values) and p-value threshold <0.05.
A further chemoproteomic profiling analysis of endogenous protein capture by OC9-Bt from KDM7B-expressing T-cell lymphoblastic lymphoma SUP-T1 nuclear lysates[67] identified 454 proteins.

A further assay concerns the target KDM7A dual domain (Homo sapiens, UniProt Q6ZMT4). Briefly: MALDI-TOF-MS KDM7 activity assay (H3 peptide demethylation). Type of assay: biochemical. Conditions: from <5% without OC9. Here is the method:
Fig. 5 KDM7 PHD-finger inhibition by OC9 modulates dual domain JmjC activity. (a) (i–iii) OC9 inhibits demethylation of H3K9me2, with or without K4me3, by KDM7B (0.4 μM) on H3 peptide (2.5 μM). […] (b) (i–iii) OC9 enhances demethylation of H3K4me3K9me2 by KDM7A (0.55 μM) on H3 peptide (2.5 μM), and (iv) enhances KDM7A (0.5 μM) demethylation of calf histone extracts (50 μg). […] Inset MALDI-TOF-MS overlays are from respective highest OC9 concentration points compared to DMSO alone. KDM7 PHD-finger only proteins had no demethylase activity (Fig. S40 ^†). Calf histone H3K9me2 was quantitated relative to H4 band intensities at each time point, normalised to DMSO at t = 0. Full Western blots available in Fig. S42. ^† Relative rates (Krel min^−1) from a one-phase decay model, average from N = 3 independent experiments. […] The enzyme heading of the panel (KDM7B / KDM7A) was put in front of them. / DMSO is the vehicle control. Its printed rates (0.30 min^-1 in a, 0.04 min^-1 in b) are included because they are printed with its name.
In contrast to KDM7B, KDM7A lacks activity against H3K4me3K9me2, but demethylates H3_1–21K9me2.[57] OC9, however, restored the activity of KDM7A against H3_1–21K4me3K9me2 from <5% to a level (∼30%) that approached demethylation on H3_1–21K9me2 with DMSO alone (∼40%) (Fig. 5b and S39 ^†). […]

The target of the next assay is KDM7A Dual (Homo sapiens, UniProt Q6ZMT4). The assay is described as follows: ITC binding. As for the experimental part: (§1) Figure S10. ITC results: Tabulated values from 1:1 binding model and conditions
KDM7A Dual, sequence (Q6ZMT4 38-386 limits assumed): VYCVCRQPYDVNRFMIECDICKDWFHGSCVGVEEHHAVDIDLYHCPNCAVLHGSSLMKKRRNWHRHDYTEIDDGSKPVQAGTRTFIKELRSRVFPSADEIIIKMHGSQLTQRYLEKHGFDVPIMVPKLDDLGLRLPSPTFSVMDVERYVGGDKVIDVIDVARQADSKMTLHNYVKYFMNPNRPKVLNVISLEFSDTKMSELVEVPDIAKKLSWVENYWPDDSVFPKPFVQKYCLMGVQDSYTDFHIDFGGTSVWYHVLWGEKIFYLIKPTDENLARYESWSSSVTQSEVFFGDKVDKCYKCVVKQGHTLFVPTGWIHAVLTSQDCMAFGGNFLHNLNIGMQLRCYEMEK

(§2) ITC buffer = 50 mM HEPES, 100 mM NaCl, pH 7.4, 0.2 µm filtered), at 25 °C. Dual = PHD+JmjC. HisTrx
(§3) = His 6+thioredoxin tag, GST = glutathione S -transferase tag, ZB = Z -basic tag. Syringe contained
(§4) peptide solution in buffer. Cell contained protein solution in buffer.
(§5) (1 picture or pasted object on this page, not shown here)

A further assay deals with T1, KDM7A PHD (Homo sapiens, UniProt Q6ZMT4).
T1 construct: KDM7A 38-98; made in house
T1 sequence (Q6ZMT4 38-98): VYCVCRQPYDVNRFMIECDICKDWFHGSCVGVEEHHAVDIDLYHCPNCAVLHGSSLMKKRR
The assay is described as follows: ITC binding. Here is the method:
as §1, §2, §3, §4, §5

Another assay concerns the target T2, HisTrx-DIDO PHD (Homo sapiens, UniProt Q9BTC0).
T2 construct: HisTrx-DIDO PHD
Briefly: ITC binding. Conditions: 50 mM HEPES, 100 mM NaCl, pH 7.4, 25 °C; 1:1 binding model. Here is the method:
as §1, §2, §3, §4, §5

The target of another assay is KDM7C Dual - ZB (Homo sapiens, UniProt O75151). Briefly: ITC binding. As for the experimental part: as §1, §2, §3, §4, §5
KDM7C Dual - ZB, sequence (O75151 1-353 limits assumed): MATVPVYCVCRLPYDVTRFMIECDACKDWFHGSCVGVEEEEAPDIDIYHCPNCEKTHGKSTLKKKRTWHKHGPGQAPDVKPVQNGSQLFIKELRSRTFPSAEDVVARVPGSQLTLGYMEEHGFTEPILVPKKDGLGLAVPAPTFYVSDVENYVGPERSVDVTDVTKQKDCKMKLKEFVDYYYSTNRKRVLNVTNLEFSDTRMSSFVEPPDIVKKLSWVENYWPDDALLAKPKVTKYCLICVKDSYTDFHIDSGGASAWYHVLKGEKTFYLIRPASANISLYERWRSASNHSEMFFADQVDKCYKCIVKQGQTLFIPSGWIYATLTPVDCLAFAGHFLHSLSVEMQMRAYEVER
A further assay deals with T3, KDM7B dual domain (Homo sapiens, UniProt Q9UPP1).
T3 construct: dual domain (PHD-JmjC) of KDM7B; His-tag (C); made in house
T3 sequence (Q9UPP1 37-483 limits assumed): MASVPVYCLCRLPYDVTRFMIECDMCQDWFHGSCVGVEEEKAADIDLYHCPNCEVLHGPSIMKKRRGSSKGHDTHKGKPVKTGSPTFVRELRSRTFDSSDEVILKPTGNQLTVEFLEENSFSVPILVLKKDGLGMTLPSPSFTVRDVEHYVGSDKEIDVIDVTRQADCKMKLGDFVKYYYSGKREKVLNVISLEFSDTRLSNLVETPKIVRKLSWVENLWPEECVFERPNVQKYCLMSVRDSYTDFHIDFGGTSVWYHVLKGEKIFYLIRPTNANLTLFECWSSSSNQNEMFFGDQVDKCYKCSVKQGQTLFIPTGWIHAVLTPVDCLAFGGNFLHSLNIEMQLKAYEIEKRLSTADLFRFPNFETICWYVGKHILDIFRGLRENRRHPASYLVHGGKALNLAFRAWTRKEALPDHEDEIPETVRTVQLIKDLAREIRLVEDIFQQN
Briefly: AlphaScreen demethylation assay. Type of assay: biochemical. The text has this: We tested the effect of OC9 on KDM7B demethylation of H3_1–21K4me3K9me2 and the less-efficient H3_1–21K9me2 substrate by MALDI-TOF MS based assay.[14,19] […] Inhibition by OC9 was further confirmed by an orthogonal AS activity assay[58] (Fig. S41 ^†). […] As KDM7B aromatic cage mutation results in the same phenotypic outcome as JmjC catalytic site inactivation (e.g. KDM7B demethylase-dependent melanoma metastasis[20]), our results emphasise the crucial role of PHD-fingers in regulating KDM7 demethylase activity and the need to explore PHD-finger viability as therapeutic targets.

The next assay has as its target T4, ING2 PHD (Homo sapiens, UniProt Q9H160).
T4 construct: ING2 PHD
Briefly: BLI binding. Conditions: 1:1 binding model.
From the text: (§6) against KDM7 and other protein domains. t1/2 = half life (0.693 / Koff)
as §5

The target of another assay is SPIN1 TTD (Homo sapiens, UniProt Q9Y657). Briefly: BLI binding. To be noted: 1:1 binding model.
SPIN1 TTD, sequence (Q9Y657 53-262 limits assumed): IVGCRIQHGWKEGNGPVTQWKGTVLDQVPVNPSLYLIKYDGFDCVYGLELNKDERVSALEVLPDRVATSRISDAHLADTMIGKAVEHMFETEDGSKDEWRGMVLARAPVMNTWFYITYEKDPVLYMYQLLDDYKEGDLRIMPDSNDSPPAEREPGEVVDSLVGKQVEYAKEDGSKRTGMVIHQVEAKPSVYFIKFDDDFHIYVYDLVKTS
From the text: as §6, §5

For a further assay, the target named is T5, DIDO PHD (Homo sapiens, UniProt Q9BTC0).
T5 construct: DIDO PHD
T5 sequence (Q9BTC0 268-322 limits assumed): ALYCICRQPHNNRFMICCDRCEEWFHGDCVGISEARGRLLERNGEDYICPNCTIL
The assay is described as follows: BLI binding. To be noted: 1:1 binding model.
From the text: as §6, §5

A further assay concerns the target T6, TAF3 PHD (Homo sapiens, UniProt Q5VWG9).
T6 construct: TAF3 PHD
The assay is described as follows: BLI binding. To be noted: 1:1 binding model.
From the text: as §6, §5

[2] abbreviates: 50 mM HEPES, 100 mM NaCl, pH 7.4, 25 °C, 1:1 binding model.

pKd: −log10 of the molar value. Peptide text beside a SMILES is read from it.

T4 sequence (Q9H160 212-261 limits assumed): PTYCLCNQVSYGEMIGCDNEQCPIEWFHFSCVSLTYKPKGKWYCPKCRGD
KDM7A dual domain, sequence (Q6ZMT4 38-480 limits assumed): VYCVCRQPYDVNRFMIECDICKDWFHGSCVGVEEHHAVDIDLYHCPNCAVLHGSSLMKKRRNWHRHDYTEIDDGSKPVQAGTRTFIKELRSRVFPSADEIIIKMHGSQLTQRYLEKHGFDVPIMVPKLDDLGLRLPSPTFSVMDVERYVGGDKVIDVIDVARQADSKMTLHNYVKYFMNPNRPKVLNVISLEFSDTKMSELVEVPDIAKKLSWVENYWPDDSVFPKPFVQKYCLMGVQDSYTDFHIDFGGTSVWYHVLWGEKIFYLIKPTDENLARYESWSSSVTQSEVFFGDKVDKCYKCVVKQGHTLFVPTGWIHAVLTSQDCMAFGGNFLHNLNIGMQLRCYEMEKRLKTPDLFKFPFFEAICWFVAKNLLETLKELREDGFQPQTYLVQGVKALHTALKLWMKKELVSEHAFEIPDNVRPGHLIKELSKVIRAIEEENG
T6 sequence (Q5VWG9 865-915 limits assumed): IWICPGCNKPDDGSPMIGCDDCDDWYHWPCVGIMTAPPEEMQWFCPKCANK

Regarding `CC(C)C[C@@H]1NC(=O)[C@H](Cc2ccc(O)cc2)NC(=O)[C@H](Cc2ccc(O)cc2)NC(=O)CSC[C@@H](C(N)=O)NC(=O)[C@H]([C@@H](C)O)NC(=O)[C@H](CCCNC(=N)N)NC(=O)[C@H](Cc2ccccc2)NC(=O)[C@H](C(C)C)NC(=O)[C@H](CO)NC(=O)[C@@H]2CCCN2C(=O)[C@H](Cc2ccc(O)cc2)NC(=O)[C@@H]2CCCN2C(=O)[C@H](Cc2c[nH]cn2)NC(=O)[C@H]([C@@H](C)O)NC1=O` [OC9] (HELM PEPTIDE1{[O=C(C[*:3])[*:2]].Y.Y.L.T.H.P.Y.P.S.V.F.R.T.C.[am]}$PEPTIDE1,PEPTIDE1,1:R3-15:R3$$$V2.0), the “proteins competed from OC9-Bt pull-down by titration of unlabelled OC9” value in [1] was “Only the relative abundance of KDM7B and KDM7C were significantly affected”. The “activity of KDM7A against H3_1–21K4me3K9me2 restored by OC9 (demethylation level)” value at KDM7A dual domain is on record as around 30%. Further, the negative-log Kd (pKd) at KDM7A Dual (setting [2]) was 7.46; at KDM7A PHD (setting [2]) it was 7.48; on ING2 PHD, below 6.00; on SPIN1 TTD, below 6.00; at DIDO PHD, below 6.00; at TAF3 PHD, below 6.00. Besides, the “ITC ΔH, KDM7A Dual” value at KDM7A Dual (25 °C) is listed as -56.9 ± 4.3 kJ mol -1. Also, the “ITC N, KDM7A Dual” value at KDM7A Dual (stoichiometry) stood at 0.92 ± 0.03. Moreover, the “ITC ΔH, KDM7A PHD” value at KDM7A PHD (25 °C) is recorded as -46.0 ± 1.3 kJ mol -1. In addition, on KDM7A PHD (stoichiometry), the “ITC N, KDM7A PHD” value was found to be 0.71 ± 0.01. The “ITC KD, HisTrx-DIDO PHD” value at HisTrx-DIDO PHD is “no measurable affinity”. For the same molecule, at KDM7C Dual - ZB (25 °C), the “ITC ΔH, KDM7C Dual - ZB” value was -65.7 ± 3.1 kJ mol -1. For the same molecule, the Kd at KDM7C Dual - ZB (read-out: ITC pKD, KDM7C Dual - ZB (converted)) is 10 nM. The “ITC N, KDM7C Dual - ZB” value at KDM7C Dual - ZB (stoichiometry) came out at 1.19 ± 0.01. Also, at KDM7B dual domain, the “inhibition of KDM7B demethylase in orthogonal AS activity assay” value is “Inhibition”. Further, the “BLI KD, DIDO PHD” value at DIDO PHD is listed as “no measurable affinity”.
